Literature values, collected in patent US20230346889A9, “TREATMENT OF ACUTE HEART FAILURE” (AnaCardio R&D AB, priority 2019, published 2023).
Non-standard residues stand in square brackets, D forms with d. Residues, ends and D or L forms follow the SMILES beside them. dTrp(2-Me) = Cc1[nH]c2ccccc2c1C[C@@H](N)C(=O)O; d2Nal = N[C@H](Cc1ccc2ccccc2c1)C(=O)O

Key:
[1] = test system: patients with heart failure; details: cited from earlier work; for association with mortality: observational ADHERE Registry
[2] = test system: dogs with acute myocardial infarction; details: US2004014671A1; cited from earlier work

Structure (SMILES) | improvement of CO [2] | association with mortality [1] | other results
C[C@@H]1CC(=O)NN=C1c1ccc(NN=C(C#N)C#N)cc1 [Levosimendan] |  |  | hypotension and arrhythmias vs. placebo ([1]; REVIVE I and II): increased hypotension and arrhythmias vs. placebo; effect on CO and blood pressure ([1]; human, in vivo): increases CO but also causes hypotension
C[C@H](NC(=O)[C@@H](Cc1ccc2ccccc2c1)NC(=O)[C@@H](C)N)C(=O)N[C@@H](Cc1c[nH]c2ccccc12)C(=O)N[C@H](Cc1ccccc1)C(=O)N[C@@H](CCCCN)C(N)=O [Pralmorelin] (H-[dA][d2Nal]AW[dF]K-NH2) | improved |  | 
CC(CCc1ccc(O)cc1)NCCc1ccc(O)c(O)c1 (stereo not shown) [dobutamine] |  | independently associated with increased mortality | 
Cc1[nH]c2ccccc2c1C[C@@H](NC(=O)[C@@H](N)Cc1cnc[nH]1)C(=O)N[C@@H](C)C(=O)N[C@@H](Cc1c[nH]c2ccccc12)C(=O)N[C@H](Cc1ccccc1)C(=O)N[C@@H](CCCCN)C(N)=O [hexarelin] (H-H[dTrp(2-Me)]AW[dF]K-NH2) | not |  | 
Cc1[nH]c(=O)c(C#N)cc1-c1ccncc1 [milrinone] |  | independently associated with increased mortality | adverse outcomes vs. placebo ([1]; randomized OPTIME CHF): caused significantly more hypotension and atrial arrhythmias and non-significantly more deaths
